Test results reported in ChEMBL document CHEMBL3526092 (Drug Metab Dispos, 2012).

Assays:
CYP3A [1] = molecular target: T1, CYP3A (Homo sapiens, UniProt P08684+P20815+P24462+Q9HB55); test: Inhibition of CYP3A-mediated 1'-OH midazolam formation in human liver microsomes after 7.5 mins by LC-MS method; format: ADME; details: probe midazolam (1'-OH midazolam formation)
CYP3A [2] = molecular target: T1, CYP3A; test: Inhibition of CYP3A-mediated 1'-OH midazolam formation in human liver microsomes preincubated for 15 mins before substrate addition by LC-MS method; format: ADME; details: probe midazolam (1'-OH midazolam formation)
Cytochrome P450 3A4 [3] = molecular target: T2, Cytochrome P450 3A4 (Homo sapiens, UniProt P08684); test: Reversible competitive inhibition of human CYP3A4-mediated 1'-OH midazolam formation in human liver microsomes after 7.5 mins by nonlinear regression study; format: ADME
CYP3A [4] = molecular target: T1, CYP3A; test: Reversible competitive inhibition of CYP3A-mediated 1'-OH midazolam formation in human liver microsomes after 7.5 mins by nonlinear regression study; format: ADME; details: probe midazolam (1'-OH midazolam formation)
Cytochrome P450 3A5 [5] = molecular target: T3, Cytochrome P450 3A5 (Homo sapiens, UniProt P20815); test: Inhibition of human CYP3A5 expressed in supersomes assessed inhibition of 1'-OH midazolam formation by LC-MS method; format: ADME
Cytochrome P450 3A5 [6] = molecular target: T3, Cytochrome P450 3A5; test: Inhibition of human CYP3A5 expressed in supersomes assessed inhibition of 1'-OH midazolam formation preincubated with compound before substrate addition by LC-MS method; format: ADME
CYP3A5 [7] = molecular target: T4, CYP3A5 (Homo sapiens, UniProt P20815); test: Inhibition of human CYP3A5 expressed in supersomes assessed inhibition of 1'-OH midazolam formation preincubated with compound for 2.5 to 30 mins followed by addition of 20-fold diluted buffer with 20 uM MDZ by LC-MS method; format: ADME; details: supersomes expressing human CYP3A5, probe midazolam (20 uM; 1'-OH midazolam formation)
CYP3A4 [8] = molecular target: T5, CYP3A4 (Homo sapiens, UniProt P08684); test: Inhibition of human CYP3A4 expressed in supersomes assessed inhibition of 1'-OH midazolam formation preincubated with compound for 2.5 to 30 mins followed by addition of 20-fold diluted buffer with 20 uM MDZ by LC-MS method; format: ADME; details: supersomes expressing human CYP3A4, probe midazolam (20 uM; 1'-OH midazolam formation)
CYP3A5 [9] = molecular target: T4, CYP3A5; test: Inhibition of human CYP3A5 expressed in supersomes assessed inhibition of 1'-OH midazolam formation preincubated at 2 uM followed by addition of 20-fold diluted buffer with 20 uM MDZ by LC-MS method in presence of NADPH; format: ADME; details: supersomes expressing human CYP3A5, probe midazolam (20 uM; 1'-OH midazolam formation)
CYP3A4 [10] = molecular target: T5, CYP3A4; test: Inhibition of human CYP3A4 expressed in supersomes assessed inhibition of 1'-OH midazolam formation preincubated at 2 uM followed by addition of 20-fold diluted buffer with 20 uM MDZ by LC-MS method in presence of NADPH; format: ADME; details: supersomes expressing human CYP3A4, probe midazolam (20 uM; 1'-OH midazolam formation)
Cytochrome P450 3A4 [11] = molecular target: T2, Cytochrome P450 3A4; test: Inhibition of human CYP3A4 expressed in supersomes assessed inhibition of 1'-OH midazolam formation by LC-MS method; format: ADME
Cytochrome P450 3A4 [12] = molecular target: T2, Cytochrome P450 3A4; test: Inhibition of human CYP3A4 expressed in supersomes assessed inhibition of 1'-OH midazolam formation preincubated with compound before substrate addition by LC-MS method; format: ADME
Cytochrome P450 3A5 [13] = molecular target: T3, Cytochrome P450 3A5; test: Reversible competitive inhibition of human CYP3A5-mediated 1'-OH midazolam formation in human liver microsomes after 7.5 mins by nonlinear regression study; format: ADME
CYP3A4 [14] = molecular target: T5, CYP3A4; test: Ratio of IC50 for human CYP3A4 expressed in supersomes by coincubation study to IC50 for human CYP3A4 expressed in supersomes by preincubation study; details: supersomes expressing human CYP3A4, read-out: Ratio IC50
CYP3A5 [15] = molecular target: T4, CYP3A5; test: Ratio of IC50 for human CYP3A5 expressed in supersomes by coincubation study to IC50 for human CYP3A5 expressed in supersomes by preincubation study; details: supersomes expressing human CYP3A5, read-out: Ratio IC50
CYP3A [16] = molecular target: T1, CYP3A; test: Competitive inhibition of CYP3A in human liver microsomes; format: ADME
[17] = human, recombinant enzyme, TDE = time-dependent effect

T4 sequence (P20815 whole entry): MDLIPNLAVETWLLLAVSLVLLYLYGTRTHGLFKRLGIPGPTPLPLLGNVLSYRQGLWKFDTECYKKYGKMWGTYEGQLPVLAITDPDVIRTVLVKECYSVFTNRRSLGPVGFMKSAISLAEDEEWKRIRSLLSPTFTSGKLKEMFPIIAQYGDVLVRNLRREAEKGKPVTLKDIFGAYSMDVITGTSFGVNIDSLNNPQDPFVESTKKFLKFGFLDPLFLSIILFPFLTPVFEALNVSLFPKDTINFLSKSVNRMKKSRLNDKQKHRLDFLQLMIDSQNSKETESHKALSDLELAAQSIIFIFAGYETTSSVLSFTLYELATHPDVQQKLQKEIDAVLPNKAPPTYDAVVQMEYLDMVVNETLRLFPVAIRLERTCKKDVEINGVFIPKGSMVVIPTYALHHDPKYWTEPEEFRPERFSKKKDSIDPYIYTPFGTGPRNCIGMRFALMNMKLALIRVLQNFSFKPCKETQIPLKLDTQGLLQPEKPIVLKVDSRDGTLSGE
T3 sequence (P20815 whole entry): as above
T2 sequence (P08684 whole entry): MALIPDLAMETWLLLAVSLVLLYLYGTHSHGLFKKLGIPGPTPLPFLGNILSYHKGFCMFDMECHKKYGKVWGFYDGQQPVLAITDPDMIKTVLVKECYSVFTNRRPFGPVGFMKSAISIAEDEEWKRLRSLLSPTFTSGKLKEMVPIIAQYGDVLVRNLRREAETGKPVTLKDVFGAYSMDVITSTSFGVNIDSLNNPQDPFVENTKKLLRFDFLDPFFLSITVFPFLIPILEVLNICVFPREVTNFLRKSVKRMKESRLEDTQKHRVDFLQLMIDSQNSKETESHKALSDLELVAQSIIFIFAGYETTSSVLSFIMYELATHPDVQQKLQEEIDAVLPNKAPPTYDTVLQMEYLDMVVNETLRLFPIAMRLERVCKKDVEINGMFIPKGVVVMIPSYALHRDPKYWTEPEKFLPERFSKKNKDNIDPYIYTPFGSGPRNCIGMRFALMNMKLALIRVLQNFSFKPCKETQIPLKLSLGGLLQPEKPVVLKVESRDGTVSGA
T5 sequence (P08684 whole entry): as above

Compound: C=CC[C@@H]1/C=C(\C)C[C@H](C)C[C@H](OC)[C@H]2O[C@@](O)(C(=O)C(=O)N3CCCC[C@H]3C(=O)O[C@H](/C(C)=C/[C@@H]3CC[C@@H](O)[C@H](OC)C3)[C@H](C)[C@@H](O)CC1=O)[C@H](C)C[C@@H]2OC [TACROLIMUS ANHYDROUS]
- IC50 at 7.5 min (CYP3A [1]): 940 nM
- IC50 (CYP3A [2]): 740 nM
- Ki (Cytochrome P450 3A4 [3]): 2660 nM
- Ki at 7.5 min (CYP3A [4]): 610 nM
- IC50 (Cytochrome P450 3A5 [5]): 630 nM
- inhibition (INH) (Cytochrome P450 3A5 [5]; [17]): tde
- IC50 (Cytochrome P450 3A5 [6]): 140 nM
- inhibition (INH) (Cytochrome P450 3A5 [6]; [17]): tde
- kinact (CYP3A5 [7]): 0.0035 s⁻¹
- kinact (CYP3A4 [8]): 0.005 s⁻¹
- inhibition at 2 µM (CYP3A5 [9]): 52%
- inhibition at 2 µM (CYP3A4 [10]): 42%
- IC50 (Cytochrome P450 3A4 [11]): 620 nM
- inhibition (INH) (Cytochrome P450 3A4 [11]; [17]): tde
- IC50 (Cytochrome P450 3A4 [12]): 120 nM
- inhibition (INH) (Cytochrome P450 3A4 [12]; [17]): tde
- Ki (Cytochrome P450 3A5 [13]): 2690 nM
- IC50 shift (CYP3A4 [14]): 5
- IC50 shift (CYP3A5 [15]): 5
- Ki (CYP3A [16]): 360 nM
